Structures can show the parent of a compound that is named as a salt.
Columns and labels:
MV-4-11 cells = assay: Anti proliferative activity in MV-4-11 cells by Cell Titer Glo (Promega) assay; format: cell-based; conditions: Homo sapiens, MV4-11, 72 h, 3 days, CellTiter-Glo
Method: Example-P2: Determination of Anti Proliferative Activity of Compounds in Cell Lines MV-4-11 by Cell Titer Glo® (Promega) Assay
MV-4-11 (CRL-9591™) cells were seeded in 96 well plate flat black clear bottom plates (Corning, Cat. No 3904) using complete DMEM Medium. Next day, selected compounds of the present invention were added to cells from 10 mM stocks made in DMSO (Sigma Cat no. D2650). Each concentration of compound was tested in triplicate with DMSO concentration at a final percentage not exceeding 0.3 in the cells. After the incubation of MV-4-11 cells with compound for 3 days; assay was terminated using 100 μl of CellTiter Glo® reagent (Promega, Cat. no G7572). CellTiter-Glo® Luminescent reagent determines the number of viable cells based on quantitation of ATP present which is an indicator of cell number and metabolic activity. Luminescence readings were taken in Victor-5 instrument. Percent inhibition of proliferation was calculated using formula, % inhibition=100−(luminescence value of test/luminescence value of DMSO control)*100. DMSO control (0%)=Cells in complete media with DMSO; blank=Media alone containing DMSO. EC50 was calculated using graph pad prism software.

SK-MEL-5 cells = assay: Anti proliferative activity in SK-MEL-5 cells by Cell Titer Glo (Promega) assay; format: cell-based; conditions: Homo sapiens, retreatment on Day 4, terminated on day 8, CellTiter-Glo
Method: Example-P1: Determination of Anti Proliferative Activity of Compounds in Cell Lines SK-MEL-5 by Cell Titer Glo® (Promega) Assay
Cells were seeded into 96-well plates and the plate was incubated in 37 degrees incubator overnight. The next day, compounds were diluted 3-fold to cover 9-point concentration range in DMSO. Intermediate plate dilution was prepared in media followed with compound treatment in cells. Retreatment of cells with compound dilutions was performed on Day 4 and assay was terminated on day 8 for SK-MEL-5 cells using CellTiter-Glo and the plate was kept on orbital shaker for 20 minutes at RT. Assay was terminated on day 6 for RERF-LC-A1 without a compound retreatment. Luminescence signal was recorded on VICTOR^3 instrument. Percent inhibition of proliferation was calculated at each concentration and plotted against the compound concentration. EC50 value was calculated using GraphPad® software.

Row | Structure (SMILES) | EC50 (MV-4-11 cells) [nM] | EC50 (SK-MEL-5 cells) [nM]
1 | O=C1CCC(N2Cc3cc(C4CCN(C5CCN(c6ccc7c(c6)n(C6CCCC6)c6nc(=O)c8ccccc8n76)CC5)CC4)ccc3C2=O)C(=O)N1 (centres unmarked) [Compound 10, 3-(5-(1′-(7-cyclopenty1-5-oxo-5,7-dihydrobenzo[4,5]imidazo[1,2-a]quinazolin-9-yl)-[1,4′-bipiperidin]-4-yl)-1-oxoisoindolin-2-yl)piperidine-2,6-dione] | > 100 | > 100
2 | O=C1CCC(Nc2ccc(C3CCN(C4CCN(c5ccc6c(c5)n(C5CCCC5)c5nc(=O)c7c(O)cccc7n65)CC4)CC3)c(F)c2)C(=O)N1 (centres unmarked) [Compound 12, 3-((4-(1′-(7-cyclopentyl-4-hydroxy-5-oxo-5,7-dihydrobenzo[4,5]imidazo[1,2-a]quinazolin-9-yl)-[1,4′-bipiperidin]-4-yl)-3-fluorophenyl)amino)piperidine-2,6-dione-HCl salt] | > 100 | > 100
3 | Cn1c2cc(N3CCC(N4CCC(c5ccc6c(c5)CN(C5CCC(=O)NC5=O)C6=O)CC4)CC3)ccc2n2c3cccc(Cl)c3c(=O)nc12 (centres unmarked) [Compound 27, 3-(5-(1′-(4-chloro-7-methyl-5-oxo-5,7-dihydrobenzo[4,5]imidazo[1,2-a]quinazolin-9-yl)-[1,4′-bipiperidin]-4-yl)-1-oxoisoindolin-2-yl)piperidine-2,6-dione] | < 10 | < 10
4 | Cc1cccc2c1c(=O)nc1n(C3CCCC3)c3cc(N4CCC(N5CCC(c6ccc(NC7CCC(=O)NC7=O)cc6F)CC5)CC4)ccc3n21 (centres unmarked) [Compound 33, 3-((4-(1′-(7-cyclopentyl-4-methyl-5-oxo-5,7-dihydrobenzo[4,5]imidazo[1,2-a]quinazolin-9-yl)-[1,4′-bipiperidin]-4-yl)-3-fluorophenyl)amino)piperidine-2,6-dione] | > 100 | > 100
5 | Cn1nc(N2CCC(=O)NC2=O)c2cc(F)c(N3CCN(C4CCN(c5ccc6c(c5)n(C)c5nc(=O)c7c(N)cccc7n65)CC4)CC3)cc21 [Compound 41, 1-(6-(4-(1-(4-amino-7-methyl-5-oxo-5,7-dihydrobenzo[4,5]imidazo[1,2-a]quinazolin-9-yl)piperidin-4-yl)piperazin-1-yl)-5-fluoro-1-methyl-1H-indazol-3-yl)dihydropyrimidine-2,4(1H,3H)-dione] | > 100 | > 100
6 | Cn1c2cc(N3CCN(CC4CCN(c5ccc6c(c5)CN(C5CCC(=O)NC5=O)C6=O)CC4)CC3)ccc2n2c3cccc(N)c3c(=O)nc12 (centres unmarked) [Compound 43, 3-(5-(4-((4-(4-amino-7-methyl-5-oxo-5,7-dihydrobenzo[4,5]imidazo[1,2-a]quinazolin-9-yl)piperazin-1-yl)methyl)piperidin-1-yl)-1-oxoisoindolin-2-yl)piperidine-2,6-dione] | > 100 | > 100
7 | Nc1cccc2c1c(=O)nc1[nH]c3cc(N4CCC(N5CCC(c6ccc(C7CCC(=O)NC7=O)cc6)CC5)CC4)ccc3n12 (centres unmarked) [Compound 31, 3-(4-(1′-(4-amino-5-oxo-5,7-dihydrobenzo[4,5]imidazo[1,2-a]quinazolin-9-yl)-[1,4′-bipiperidin]-4-yl)phenyl)piperidine-2,6-dione-TFA salt] | > 100 | > 100
8 | O=C1CCC(N2C(=O)c3ccc(N4CCN(c5ccc6c(c5)n(C5CCCC5)c5nc(=O)c7c(Br)cccc7n65)CC4)cc3C2=O)C(=O)N1 (centres unmarked) [Compound 5, 5-(4-(4-bromo-7-cyclopentyl-5-oxo-5,7-dihydrobenzo[4,5]imidazo[1,2-a]quinazolin-9-yl)piperazin-1-yl)-2-(2,6-dioxopiperidin-3-yl)isoindoline-1,3-dione] | > 100 | > 100
9 | CC(C)n1c2cc(-c3ccc(N4CCN(c5ccc(NC6CCC(=O)NC6=O)cc5F)CC4)cc3)ccc2n2c3cccc(Cl)c3c(=O)nc12 (centres unmarked) [Compound 50, 3-((4-(4-(4-(4-chloro-7-isopropyl-5-oxo-5,7-dihydrobenzo[4,5]imidazo[1,2-a]quinazolin-9-yl)phenyl)piperazin-1-yl)-3-fluorophenyl)amino)piperidine-2,6-dione.TFA] | > 100 | > 100
10 | O=C1CCC(N2Cc3cc(C4CCN(C5CCN(c6ccc7c(c6)n(C6CCCC6)c6nc(=O)c8cnccc8n76)CC5)CC4)ccc3C2=O)C(=O)N1 (centres unmarked) [Compound 19, 3-(5-(1′-(7-cyclopentyl-5-oxo-5,7-dihydrobenzo[4,5]imidazo[1,2-a]pyrido[3,4-e]pyrimidin-9-yl)-[1,4′-bipiperidin]-4-yl)-1-oxoisoindolin-2-yl)piperidine-2,6-dione] | > 100 | > 100
11 | CC(C)n1c2cc(N3CCC(N4CCC(c5ccc6c(c5)CN(C5CCC(=O)NC5=O)C6=O)CC4)CC3)ccc2n2c3cccc(Cl)c3c(=O)nc12 (centres unmarked) [Compound 28, 3-(5-(1′-(4-chloro-7-isopropyl-5-oxo-5,7-dihydrobenzo[4,5]imidazo[1,2-a]quinazolin-9-yl)-[1,4′-bipiperidin]-4-yl)-1-oxoisoindolin-2-yl)piperidine-2,6-dione-HCl salt] | < 10 | < 10
12 | Nc1cccc2c1c(=O)nc1n(C3CC3)c3cc(N4CCC(N5CCN(c6ccc(NC7CCC(=O)NC7=O)cc6F)CC5)CC4)ccc3n21 (centres unmarked) [Compound 37, 3-((4-(4-(1-(4-amino-7-cyclopropyl-5-oxo-5,7-dihydrobenzo[4,5]imidazo[1,2-a]quinazolin-9-yl)piperidin-4-yl)piperazin-1-yl)-3-fluorophenyl)amino)piperidine-2,6-dione] | > 100 | > 100
13 | Cn1c2cc(-c3ccc(N4CCN(c5ccc(NC6CCC(=O)NC6=O)cc5F)CC4)cc3)ccc2n2c3cccc(N)c3c(=O)nc12 (centres unmarked) [Compound 49, 3-((4-(4-(4-(4-amino-7-methyl-5-oxo-5,7-dihydrobenzo[4,5]imidazo[1,2-a]quinazolin-9-yl)phenyl)piperazin-1-yl)-3-fluorophenyl)amino)piperidine-2,6-dione] | > 100 | > 100
14 | Cn1c2cc(N3CCC(N4CCN(c5ccc(NC6CCC(=O)NC6=O)cc5F)CC4)CC3)ccc2n2c3cccc(Cl)c3c(=O)nc12 (centres unmarked) [Compound 46, 3-((4-(4-(1-(4-chloro-7-methyl-5-oxo-5,7-dihydrobenzo[4,5]imidazo[1,2-a]quinazolin-9-yl)piperidin-4-yl)piperazin-1-yl)-3-fluorophenyl)amino)piperidine-2,6-dione] | > 100 | < 10
15 | O=C1CCC(c2ccc(C3CCN(C4CCN(c5ccc6c(c5)n(C5CCCC5)c5nc(=O)c7c(C(F)(F)F)cccc7n65)CC4)CC3)cc2)C(=O)N1 (centres unmarked) [Compound 13, 3-(4-(1′-(7-cyclopentyl-5-oxo-4-(trifluoromethyl)-5,7-dihydrobenzo[4,5]imidazo[1,2-a]quinazolin-9-yl)-[1,4′-bipiperidin]-4-yl)phenyl)piperidine-2,6-dione] | > 100 | > 100
16 | O=C1CCC(c2ccc(C3CCN(C4CCN(c5ccc6c(c5)n(C5CCCC5)c5nc(=O)c7ncccc7n65)CC4)CC3)cc2)C(=O)N1 (centres unmarked) [Compound 24, 3-(4-(1′-(7-cyclopentyl-5-oxo-5,7-dihydrobenzo[4,5]imidazo[1,2-a]pyrido[2,3-e]pyrimidin-9-yl)-[1,4′-bipiperidin]-4-yl)phenyl)piperidine-2,6-dione] | > 100 | > 100

Source: US20260297094A1, “Tetracyclic Compounds as SMARCA2 and/or SMARCA4 Degraders” (Aurigene Oncology Limited, priority 2023, published 2026)
